Values of other authors, collected in article PMC10904332 (Science (New York, N.Y.), 2022).

Details: known resistance mechanisms

Substance: bacitracin
- MIC increase from resistance mechanisms: > 254 fold
